Test results taken from the supplement of paper PMC10307832.

How the values were obtained:
Experiment in all cases: relative viability (nuclei count vs DMSO), 5 days (fraction); higher = more cells survive
FH535 = compound: CC1=C(C=CC(=C1)[N+](=O)[O-])NS(=O)(=O)C2=C(C=CC(=C2)Cl)Cl [FH535]
How it was run: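 Cells of lung cancer lines were placed in 1536-well plates and kept overnight at 37 °C. Pinning then delivered five library-drug doses (not always all listed), spaced by √10, onto plates anchored with vehicle, and the cells were left 5 days without changing medium. One step fixed, permeabilised and stained them with Hoechst, and MetaXpress counted nuclei in 4× images. Viability, as a median over plates, is treated-well nuclei divided by vehicle-well nuclei, with acceptance only at control CV below 25% and at least one doubling.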

FH535 + Navitoclax = compound: CC1=C(C=CC(=C1)[N+](=O)[O-])NS(=O)(=O)C2=C(C=CC(=C2)Cl)Cl [FH535] + CC1(C)CCC(c2ccc(Cl)cc2)=C(CN2CCN(c3ccc(C(=O)NS(=O)(=O)c4ccc(N[C@H](CCN5CCOCC5)CSc5ccccc5)c(S(=O)(=O)C(F)(F)F)c4)cc3)CC2)C1 [Navitoclax] (partner 0.5 µM)
How it was run: (§1)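 One day after seeding in 1536-well plates, lung cancer cell lines were dosed by pin tool. Dosing was either single-drug or a fixed anchor-drug dose plus five library-drug doses (not always all listed) in √10 steps. After 5 days, nuclei were stained in one fix-and-stain step and counted on 4× images, and relative viability is the nuclei count of treated wells over that of vehicle wells, given as the median of duplicate plates.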

FH535 + Foretinib = compound: CC1=C(C=CC(=C1)[N+](=O)[O-])NS(=O)(=O)C2=C(C=CC(=C2)Cl)Cl [FH535] + COc1cc2c(Oc3ccc(NC(=O)C4(C(=O)Nc5ccc(F)cc5)CC4)cc3F)ccnc2cc1OCCCN1CCOCC1 [Foretinib] (partner 0.25 µM)
How it was run: as §1

FH535 + Lapatinib = compound: CC1=C(C=CC(=C1)[N+](=O)[O-])NS(=O)(=O)C2=C(C=CC(=C2)Cl)Cl [FH535] + CS(=O)(=O)CCNCc1ccc(-c2ccc3ncnc(Nc4ccc(OCc5cccc(F)c5)c(Cl)c4)c3c2)o1 [Lapatinib] (partner 2 µM)
How it was run: as §1

FH535 + Pictilisib = compound: CC1=C(C=CC(=C1)[N+](=O)[O-])NS(=O)(=O)C2=C(C=CC(=C2)Cl)Cl [FH535] + CS(=O)(=O)N1CCN(Cc2cc3nc(-c4cccc5[nH]ncc45)nc(N4CCOCC4)c3s2)CC1 [Pictilisib] (partner 1 µM)
How it was run: as §1

FH535 + Crizotinib = compound: CC1=C(C=CC(=C1)[N+](=O)[O-])NS(=O)(=O)C2=C(C=CC(=C2)Cl)Cl [FH535] + C[C@@H](Oc1cc(-c2cnn(C3CCNCC3)c2)cnc1N)c1c(Cl)ccc(F)c1Cl [Crizotinib] (partner 1 µM)
How it was run: as §1

FH535 + Linsitinib = compound: CC1=C(C=CC(=C1)[N+](=O)[O-])NS(=O)(=O)C2=C(C=CC(=C2)Cl)Cl [FH535] + C[C@]1(O)C[C@@H](c2nc(-c3ccc4ccc(-c5ccccc5)nc4c3)c3c(N)nccn32)C1 [Linsitinib] (partner 1 µM)
How it was run: as §1

FH535 + Alpelisib = compound: CC1=C(C=CC(=C1)[N+](=O)[O-])NS(=O)(=O)C2=C(C=CC(=C2)Cl)Cl [FH535] + Cc1nc(NC(=O)N2CCC[C@H]2C(N)=O)sc1-c1ccnc(C(C)(C)C(F)(F)F)c1 [Alpelisib] (partner 2 µM)
How it was run: as §1

FH535 + Phenformin = compound: CC1=C(C=CC(=C1)[N+](=O)[O-])NS(=O)(=O)C2=C(C=CC(=C2)Cl)Cl [FH535] + N=C(N)NC(=N)NCCc1ccccc1 [Phenformin] (partner 250 µM)
How it was run: as §1

FH535 + Decitabine = compound: CC1=C(C=CC(=C1)[N+](=O)[O-])NS(=O)(=O)C2=C(C=CC(=C2)Cl)Cl [FH535] + Nc1ncn([C@H]2C[C@H](O)[C@@H](CO)O2)c(=O)n1 [Decitabine] (partner 2 µM)
How it was run: as §1

FH535 + Olaparib = compound: CC1=C(C=CC(=C1)[N+](=O)[O-])NS(=O)(=O)C2=C(C=CC(=C2)Cl)Cl [FH535] + O=C(c1cc(Cc2n[nH]c(=O)c3ccccc23)ccc1F)N1CCN(C(=O)C2CC2)CC1 [Olaparib] (partner 8 µM)
How it was run: as §1

A549 gave a relative viability (FH535; 0.04 µM) of 0.878, a relative viability (FH535; 0.1265 µM) of 0.887 and a relative viability (FH535; 0.4 µM) of 0.928. It also gave a relative viability (FH535; 1.265 µM) of 0.789, a relative viability (FH535 + Navitoclax; first compound 0.04 µM) of 1.28 and a relative viability (FH535 + Navitoclax; first compound 0.1265 µM) of 1.16. It also gave a relative viability (FH535 + Navitoclax; first compound 0.4 µM) of 1.25, a relative viability (FH535 + Navitoclax; first compound 1.265 µM) of 0.936 and a relative viability (FH535 + Foretinib; first compound 0.04 µM) of 0.947. For the same cell line, the relative viability (FH535 + Foretinib; first compound 0.1265 µM) was 0.981, the relative viability (FH535 + Foretinib; first compound 0.4 µM) was 0.853 and the relative viability (FH535 + Foretinib; first compound 1.265 µM) was 0.722. The relative viability (FH535 + Lapatinib; first compound 0.04 µM) was 0.979, the relative viability (FH535 + Lapatinib; first compound 0.1265 µM) was 0.947 and the relative viability (FH535 + Lapatinib; first compound 0.4 µM) was 0.864. The relative viability (FH535 + Lapatinib; first compound 1.265 µM) was 0.578, the relative viability (FH535 + Pictilisib; first compound 0.04 µM) was 0.553 and the relative viability (FH535 + Pictilisib; first compound 0.1265 µM) was 0.511. The relative viability (FH535 + Pictilisib; first compound 0.4 µM) was 0.494, the relative viability (FH535 + Pictilisib; first compound 1.265 µM) was 0.398 and the relative viability (FH535 + Crizotinib; first compound 0.04 µM) was 0.749. For the same cell line, the relative viability (FH535 + Crizotinib; first compound 0.1265 µM) was 0.783, the relative viability (FH535 + Crizotinib; first compound 0.4 µM) was 0.631 and the relative viability (FH535 + Crizotinib; first compound 1.265 µM) was 0.41. For the same cell line, the relative viability (FH535 + Linsitinib; first compound 0.04 µM) was 0.497, the relative viability (FH535 + Linsitinib; first compound 0.1265 µM) was 0.627 and the relative viability (FH535 + Linsitinib; first compound 0.4 µM) was 0.641. The relative viability (FH535 + Linsitinib; first compound 1.265 µM) was 0.568, the relative viability (FH535 + Alpelisib; first compound 0.04 µM) was 0.842 and the relative viability (FH535 + Alpelisib; first compound 0.1265 µM) was 0.754. For the same cell line, the relative viability (FH535 + Alpelisib; first compound 0.4 µM) was 0.72, the relative viability (FH535 + Alpelisib; first compound 1.265 µM) was 0.705 and the relative viability (FH535 + Phenformin; first compound 0.04 µM) was 0.175. The relative viability (FH535 + Phenformin; first compound 0.1265 µM) was 0.159, the relative viability (FH535 + Phenformin; first compound 0.4 µM) was 0.116 and the relative viability (FH535 + Phenformin; first compound 1.265 µM) was 0.043. The relative viability (FH535 + Decitabine; first compound 0.04 µM) was 0.251, the relative viability (FH535 + Decitabine; first compound 0.1265 µM) was 0.228 and the relative viability (FH535 + Decitabine; first compound 0.4 µM) was 0.161. It also gave a relative viability (FH535 + Decitabine; first compound 1.265 µM) of 0.222, a relative viability (FH535 + Olaparib; first compound 0.04 µM) of 0.28 and a relative viability (FH535 + Olaparib; first compound 0.1265 µM) of 0.306. For the same cell line, the relative viability (FH535 + Olaparib; first compound 0.4 µM) was 0.284 and the relative viability (FH535 + Olaparib; first compound 1.265 µM) was 0.299.
